# Experimental data reported in ChEMBL document CHEMBL3407389, “1,3,4-Thiadiazoles: a potent multi targeted pharmacological scaffold” (Eur J Med Chem, 2015).
# pIC50, pKi: −log10 of the molar value.
# Key:
# [1] = molecular target: T1, Polyunsaturated fatty acid 5-lipoxygenase (Homo sapiens, UniProt P09917); test: Inhibition of 5-LO (unknown origin)
# T1 sequence (P09917 whole entry): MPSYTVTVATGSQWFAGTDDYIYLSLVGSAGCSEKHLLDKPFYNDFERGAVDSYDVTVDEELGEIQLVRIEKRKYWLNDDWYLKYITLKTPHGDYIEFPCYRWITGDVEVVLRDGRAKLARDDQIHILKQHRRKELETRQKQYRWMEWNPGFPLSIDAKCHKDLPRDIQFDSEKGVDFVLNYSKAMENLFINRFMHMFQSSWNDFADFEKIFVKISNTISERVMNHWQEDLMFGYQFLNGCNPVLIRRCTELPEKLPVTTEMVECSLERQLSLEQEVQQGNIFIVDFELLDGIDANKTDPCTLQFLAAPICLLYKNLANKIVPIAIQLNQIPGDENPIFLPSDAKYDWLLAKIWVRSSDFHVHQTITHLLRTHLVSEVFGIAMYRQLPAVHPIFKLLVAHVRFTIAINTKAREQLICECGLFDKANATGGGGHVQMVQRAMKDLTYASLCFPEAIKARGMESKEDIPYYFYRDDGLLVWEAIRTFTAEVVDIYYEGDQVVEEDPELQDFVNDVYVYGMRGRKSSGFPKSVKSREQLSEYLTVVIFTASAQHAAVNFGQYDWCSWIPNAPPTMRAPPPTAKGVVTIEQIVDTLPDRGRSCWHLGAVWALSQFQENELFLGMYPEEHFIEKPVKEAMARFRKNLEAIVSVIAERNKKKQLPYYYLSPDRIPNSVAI
# Cyclooxygenase = Cyclooxygenase (Homo sapiens, UniProt P35354+P23219); test: Inhibition of CO (unknown origin)
# Mus musculus [2] = organism: Mus musculus; test: Anticonvulsant activity in mouse assessed as protection against shock-induced seizures by MES test; type: functional
# Mus musculus [3] = organism: Mus musculus; test: Anticonvulsant activity in mouse by MES test; type: functional
# Helicobacter pylori [4] = test: Antimicrobial activity against Helicobacter pylori at 1 ug/disc; type: functional; settings: read-out: IZ
# Helicobacter pylori [5] = test: Antimicrobial activity against Helicobacter pylori by disc diffusion method; type: functional
# Helicobacter pylori [6] = test: Potency index, ratio of IZ for compound to IZ for metronidazole against Helicobacter pylori by disc diffusion method; type: functional
# Carbonic anhydrase 1 = Carbonic anhydrase 1 (Homo sapiens, UniProt P00915); test: Inhibition of human carbonic anhydrase 1
# Carbonic anhydrase 2 = Carbonic anhydrase 2 (Homo sapiens, UniProt P00918); test: Inhibition of human carbonic anhydrase 2
# Carbonic anhydrase = Carbonic anhydrase (Bos taurus, UniProt P00921+Q95323+P18915+Q3SZX4); test: Inhibition of bovine carbonic anhydrase 5; type: protein assay
# Carbonic anhydrase 9 = Carbonic anhydrase 9 (Homo sapiens, UniProt Q16790); test: Inhibition of human carbonic anhydrase 9
# [7] = system: Human immunodeficiency virus 1; test: Antiviral activity against HIV1 3B by MTT assay; type: functional, organism-based; settings: Human immunodeficiency virus 1, 3B
# [8] = system: Human immunodeficiency virus 2; test: Antiviral activity against HIV2 ROD by MTT assay; type: functional, organism-based; settings: Human immunodeficiency virus 2, ISOLATE ROD
# [9] = system: Human immunodeficiency virus 1; test: Antiviral activity against HIV1 infected in human MT4 cells; type: functional, organism-based; settings: Human immunodeficiency virus 1, MT4
# [10] = system: Human immunodeficiency virus 2; test: Antiviral activity against HIV2 infected in human MT4 cells; type: functional, organism-based; settings: Human immunodeficiency virus 2, MT4
# Sequence of Carbonic anhydrase 1 (P00915 whole entry): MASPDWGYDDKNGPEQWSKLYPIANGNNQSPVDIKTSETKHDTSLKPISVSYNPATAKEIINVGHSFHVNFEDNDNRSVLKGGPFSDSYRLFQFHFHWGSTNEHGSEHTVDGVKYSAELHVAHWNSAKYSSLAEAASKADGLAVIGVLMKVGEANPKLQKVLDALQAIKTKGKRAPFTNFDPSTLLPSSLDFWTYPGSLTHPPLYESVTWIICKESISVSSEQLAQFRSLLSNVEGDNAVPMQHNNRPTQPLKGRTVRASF
compound,measurement,setting,value
CC(C)(C)c1cc(-c2n[nH]c(=S)s2)cc(C(C)(C)C)c1O.C[N+](C)(C)CCO,pIC50,[1],5.55
same,IC50,Cyclooxygenase,800 nM
Clc1ccc(Nc2nnc(-c3ccncc3)s2)cc1,Activity,Mus musculus [2],100%
CNc1nnc(-c2ccccc2-c2ccccc2)s1,ED50,Mus musculus [3],18 mg/kg
Cn1c([N+](=O)[O-])cnc1-c1nnc(S)s1,zone of inhibition at 1 µg/disc,Helicobacter pylori [4],7.7 mm
CC1CN(c2nnc(-c3ncc([N+](=O)[O-])n3C)s2)CC(C)N1 (centres undefined),inhibition zone (IZ),Helicobacter pylori [5],30.9 mm
same,fold change (FC),Helicobacter pylori [6],5
NS(=O)(=O)c1nnc(NS(=O)(=O)c2ccc(-[n+]3ccccc3)cc2)s1,pKi,Carbonic anhydrase 1,8.52
same,pKi,Carbonic anhydrase 2,9.70
same,Ki,Carbonic anhydrase,2 nM
same,pKi,Carbonic anhydrase 9,8.22
O=C(COc1ccc2ccccc2c1)NCc1nnc(Nc2ccccc2)s1,EC50,[7],0.961 µg/mL
same,EC50,[8],0.961 µg/mL
c1ccc(C2=Nn3cnnc3SC2)cc1,EC50,[9],1.97 µg/mL
same,EC50,[10],1.97 µg/mL
Cc1ccc(S(=O)(=O)NCc2nnc(Nc3ccc(Cl)cc3)s2)cc1,EC50,[9],23.9 µg/mL
same,EC50,[10],9.9 µg/mL
Cc1ncc([N+](=O)[O-])n1CCO [METRONIDAZOLE],zone of inhibition at 1 µg/disc,Helicobacter pylori [4],16.3 mm
same,inhibition zone (IZ),Helicobacter pylori [5],6 mm
